Experimental data from US8563730B2, “Pyrazole and fused pyrazole glucokinase activators” (Takeda San Diego, Inc., priority 2008, dated 2013).
“And” between values parts separate entries of the source, which are not always exact repeats. Identical values can stand only once. Like-named read-outs stand apart in the source and are kept apart here.

Biological target: T1, GK (glucokinase, residues 12-465) (Homo sapiens, UniProt P35557)
T1 construct: I.D. No. 1 corresponds to residues 12-465 of glucokinase; made in house; host or cells: DH10b-T1r E. coli
T1 sequence (P35557 with tags, fused parts or gaps isoform P35557-2): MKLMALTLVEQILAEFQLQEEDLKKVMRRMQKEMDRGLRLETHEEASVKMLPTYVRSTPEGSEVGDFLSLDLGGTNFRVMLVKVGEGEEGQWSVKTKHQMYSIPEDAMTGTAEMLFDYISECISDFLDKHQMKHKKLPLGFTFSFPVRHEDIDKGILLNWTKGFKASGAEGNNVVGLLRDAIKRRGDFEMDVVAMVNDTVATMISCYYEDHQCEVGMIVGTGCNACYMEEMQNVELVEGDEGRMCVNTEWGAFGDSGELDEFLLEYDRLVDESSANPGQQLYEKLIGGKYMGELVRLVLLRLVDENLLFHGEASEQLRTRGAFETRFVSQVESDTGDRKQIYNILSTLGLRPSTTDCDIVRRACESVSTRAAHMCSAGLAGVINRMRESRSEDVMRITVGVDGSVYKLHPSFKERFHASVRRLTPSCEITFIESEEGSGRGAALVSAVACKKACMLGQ
Test: enzymatic glucokinase activity assay (ATP consumption, KinaseGlo luminescence)
Format: biochemical
Conditions: 5 μM ATP, 5 mM Glucose, reported as bins; for EC50: Kact = concentration that displays 50% of the maximal increase in GK activity, 60 min, room temperature, read-out: pKact
How it was run: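 E. coli-expressed recombinant GK purified by two anion-exchange steps. Reaction in 25 mM Hepes pH 7.2, 10 mM MgCl2, 1 mM DTT, 5 μM ATP, 5 mM glucose, 2% DMSO, 60 min at room temperature. ATP consumption quantified by KinaseGlo luminescence; pKact and % ACTmax derived by non-linear curve fitting.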

[1] = calculated maximal gain in GK enzyme activity at a saturating concentration of the compound, read-out: % ACTmax

Structure (SMILES) | EC50 | Emax [1] [%] | Emax (read-out: % ACTmax, calculated maximal gain in GK enzyme activity at a saturating concentration of the compound) [%]
Cn1ccc(NC(=O)[C@H](CC2CCOCC2)n2ncc3c(S(=O)(=O)C4CC4)ccnc32)n1 [Compound 98, (S)-2-(4-(cyclopropylsulfonyl)-1H-pyrazolo[3,4-b]pyridin-1-yl)-N-(1-methyl-1H-pyrazol-3-yl)-3-(tetrahydro-2H-pyran-4-yl)propanamide] | 0.398 to 1.26 µM | 90 to 100 | 
O=C(Nc1cnccn1)[C@@H](CC1CCOCC1)n1ncc2c(S(=O)(=O)C3CC3)cccc21 [Compound 90, (R)-2-(4-(cyclopropylsulfonyl)-1H-indazol-1-yl)-N-(pyrazin-2-yl)-3-(tetrahydro-2H-pyran-4-yl)propanamide] | ≥ 15.8 µM | 90 to 100 | 
Cc1cc(NC(=O)C(CC2CCOCC2)n2ncc3c(S(=O)(=O)C4CC4)cccc32)nn1C (stereo not shown) [Compound 134, 2-(4-(cyclopropylsulfonyl)-1H-indazol-1-yl)-N-(1,5-dimethyl-1H-pyrazol-3-yl)-3-(tetrahydro-2H-pyran-4-yl)propanamide] | 1.58 to 3.16 µM | ≥ 111 | 
O=C(Nc1cnccn1)C(CC1CCOCC1)n1ncc2c(S(=O)(=O)C3CC3)cncc21 (stereo not shown) [20 (Free Base), 2-(4-(cyclopropylsulfonyl)-1H-pyrazolo[3,4-c]pyridin-1-yl)-N-(pyrazin-2-yl)-3-(tetrahydro-2H-pyran-4-yl)propanamide] | 0.398 to 1.26 µM |  | 101 to 105
NC(=O)c1cnc(NC(=O)C(CC2CCCC2)n2cc(S(=O)(=O)C3CC3)cn2)s1 (stereo not shown) [Compound 57] | 3.98 to 12.6 µM | 101 to 105 | 
Nc1cc(S(=O)(=O)C2CC2)c2cnn(C(CC3CCOCC3)C(=O)Nc3cnccn3)c2n1 (stereo not shown) [Compound 96, 2-(6-amino-4-(cyclopropylsulfonyl)-1H-pyrazolo[3,4-b]pyridin-1-yl)-N-(pyrazin-2-yl)-3-(tetrahydro-2H-pyran-4-yl)propanamide] | 0.398 to 1.26 µM | 101 to 105 | 
O=C(Nc1cnccn1)C(CC1CCOCC1)n1cc(S(=O)(=O)C2CC2)cn1 (stereo not shown) [Compound 46, 2-(4-(cyclopropylsulfonyl)-1H-pyrazol-1-yl)-N-(pyrazin-2-yl)-3-(tetrahydro-2H-pyran-4-yl)propanamide] | ≥ 15.8 µM | 101 to 105 | 
N#Cc1cc(S(=O)(=O)C2CC2)c2cnn([C@@H](CC3CCOCC3)C(=O)Nc3ncc(F)s3)c2c1 [Compound 133, (S)-2-(6-cyano-4-(cyclopropylsulfonyl)-1H-indazol-1-yl)-N-(5-fluorothiazol-2-yl)-3-(tetrahydro-2H-pyran-4-yl)propanamide] | ≤ 0.316 µM | 101 to 105 | 
COc1ccc2c(cnn2C(CC2CCOCC2)C(=O)Nc2ncc(F)s2)c1S(=O)(=O)C1CC1 (stereo not shown) [Compound 80, 2-(4-(cyclopropylsulfonyl)-5-methoxy-1H-indazol-1-yl)-N-(5-fluorothiazol-2-yl)-3-(tetrahydro-2H-pyran-4-yl)propanamide] | ≤ 0.316 µM | 101 to 105 | 
O=C(Nc1ncc(F)s1)C(CC1CCOCC1)n1ncc2c(S(=O)(=O)C3CC3)c(F)ccc21 (stereo not shown) [Compound 149, 2-(4-(cyclopropylsulfonyl)-5-fluoro-1H-indazol-1-yl)-N-(5-fluorothiazol-2-yl)-3-(tetrahydro-2H-pyran-4-yl)propanamide] | ≤ 0.316 µM | ≥ 111 | 
O=C(Nc1ncc(F)s1)C(CC1CCOCC1)n1cc2c(S(=O)(=O)C3CC3)c(F)ccc2n1 (stereo not shown) [Compound 148, 2-(4-(cyclopropylsulfonyl)-5-fluoro-2H-indazol-2-yl)-N-(5-fluorothiazol-2-yl)-3-(tetrahydro-2H-pyran-4-yl)propanamide] | 3.98 to 12.6 µM | ≤ 90 | 
O=C(Nc1ncc(Cl)s1)[C@H](CC1CCOCC1)n1ncc2c(S(=O)(=O)C3CC3)cccc21 [Compound 64, (S)-N-(5-chlorothiazol-2-yl)-2-(4-(cyclopropylsulfonyl)-1H-indazol-1-yl)-3-(tetrahydro-2H-pyran-4-yl)propanamide] | ≤ 0.316 µM | ≥ 111 | 
COc1cc(S(=O)(=O)C2CC2)c2cn(C(CC3CCOCC3)C(=O)Nc3ncc(F)s3)nc2c1 (stereo not shown) [Compound 73, 2-(4-(cyclopropylsulfonyl)-6-methoxy-2H-indazol-2-yl)-N-(5-fluorothiazol-2-yl)-3-(tetrahydro-2H-pyran-4-yl)propanamide] | ≥ 15.8 µM | 90 to 100 | 
O=C(Nc1cnccn1)[C@H](CC1CCOCC1)n1ncc2c(S(=O)(=O)C3CC3)ccnc21 [Compound 162, (S)-2-(4-(cyclopropylsulfonyl)-1H-pyrazolo[3,4-b]pyridin-1-yl)-N-(pyrazin-2-yl)-3-(tetrahydro-2H-pyran-4-yl)propanamide] | 1.58 to 3.16 µM | 106 to 110 | 
O=C(Nc1ccncn1)C(CC1CCOCC1)n1ncc2c(S(=O)(=O)C3CC3)cccc21 (stereo not shown) [Compound 124, 2-(4-(cyclopropylsulfonyl)-1H-indazol-1-yl)-N-(pyrimidin-4-yl)-3-(tetrahydro-2H-pyran-4-yl)propanamide] | 3.98 to 12.6 µM | ≥ 111 | 
COc1ccc2nc(NC(=O)[C@@H](CC3CCOCC3)n3cc(S(=O)(=O)C4CC4)cn3)sc2n1 [Compound 25, (R)-2-(4-(cyclopropylsulfonyl)-1H-pyrazol-1-yl)-N-(5-methoxythiazolo[5,4-b]pyridin-2-yl)-3-(tetrahydro-2H-pyran-4-yl)propanamide] | ≥ 15.8 µM | ≤ 90 | 
O=C(Nc1cnccn1)[C@@H](CC1CCOCC1)n1ncc2c(S(=O)(=O)C3CC3)ccnc21 [Compound 161, (R)-2-(4-(cyclopropylsulfonyl)-1H-pyrazolo[3,4-b]pyridin-1-yl)-N-(pyrazin-2-yl)-3-(tetrahydro-2H-pyran-4-yl)propanamide] | ≥ 15.8 µM | ≤ 90 | 
N#Cc1cc(S(=O)(=O)C2CC2)c2cnn([C@H](CC3CCOCC3)C(=O)Nc3ncc(F)s3)c2c1 [Compound 132, (R)-2-(6-cyano-4-(cyclopropylsulfonyl)-1H-indazol-1-yl)-N-(5-fluorothiazol-2-yl)-3-(tetrahydro-2H-pyran-4-yl)propanamide] | 1.58 to 3.16 µM | 90 to 100 | 
O=C1CC[C@H](C[C@@H](C(=O)Nc2ncc(Cl)s2)n2ncc3c(S(=O)(=O)C4CC4)cccc32)C1 [Compound 113, (S)-N-(5-chlorothiazol-2-yl)-2-(4-(cyclopropylsulfonyl)-1H-indazol-1-yl)-3-((R)-3-oxocyclopentyl)propanamide] | 0.398 to 1.26 µM | 101 to 105 | 
O=C1CC[C@H](C[C@@H](C(=O)Nc2ncc(F)s2)n2cc(S(=O)(=O)C3CC3)cn2)C1 [Compound 54, (S)-2-(4-(cyclopropylsulfonyl)-1H-pyrazol-1-yl)-N-(5-fluorothiazol-2-yl)-3-((R)-3-oxocyclopentyl)propanamide] | 3.98 to 12.6 µM | ≤ 90 | 
Nc1cc(S(=O)(=O)C2CC2)c2cnn([C@H](CC3CCOCC3)C(=O)Nc3cnccn3)c2n1 [Compound 163, (R)-2-(6-amino-4-(cyclopropylsulfonyl)-1H-pyrazolo[3,4-b]pyridin-1-yl)-N-(pyrazin-2-yl)-3-(tetrahydro-2H-pyran-4-yl)propanamide] | 1.58 to 3.16 µM | ≤ 90 | 
COc1ccc2nc(NC(=O)C(CC3CCOCC3)n3cc(S(=O)(=O)c4ccc(Cl)cc4)cn3)sc2n1 (stereo not shown) [Compound 30, 2-(4-(4-chlorophenylsulfonyl)-1H-pyrazol-1-yl)-N-(5-methoxythiazolo[5,4-b]pyridin-2-yl)-3-(tetrahydro-2H-pyran-4-yl)propanamide] | 3.98 to 12.6 µM | ≤ 90 | 
O=C1CC[C@H](CC(C(=O)Nc2ncc(Cl)s2)n2ncc3c(S(=O)(=O)C4CC4)cccc32)C1 (stereo partly drawn) [Compound 11, N-(5-chlorothiazol-2-yl)-2-(4-(cyclopropylsulfonyl)-1H-indazol-1-yl)-3-((R)-3-oxocyclopentyl)propanamide] | ≤ 0.316 µM | 101 to 105 | 
O=C(Nc1cnccn1)C(CC1CCOCC1)n1ncc2c(S(=O)(=O)C3CC3)cc(F)cc21 (stereo not shown) [Compound 103, 2-(4-(cyclopropylsulfonyl)-6-fluoro-1H-indazol-1-yl)-N-(pyrazin-2-yl)-3-(tetrahydro-2H-pyran-4-yl)propanamide] | 1.58 to 3.16 µM | 101 to 105 | 
O=C(Nc1ncc(F)s1)C(CC1CCOCC1)n1ncc2c(S(=O)(=O)C3CC3)c(Cl)ccc21 (stereo not shown) [Compound 22, 2-(5-chloro-4-(cyclopropylsulfonyl)-1H-indazol-1-yl)-N-(5-fluorothiazol-2-yl)-3-(tetrahydro-2H-pyran-4-yl)propanamide] | ≤ 0.316 µM | ≥ 111 | 
Cn1ccc(NC(=O)[C@H](CC2CCOCC2)n2ncc3c(S(=O)(=O)C4CC4)cc(C#N)cc32)n1 [Compound 105, (S)-2-(6-cyano-4-(cyclopropylsulfonyl)-1H-indazol-1-yl)-N-(1-methyl-1H-pyrazol-3-yl)-3-(tetrahydro-2H-pyran-4-yl)propanamide] | 0.398 to 1.26 µM and ≤ 0.316 µM | ≤ 90 | 
